Molecular target: T1, sEH (Homo sapiens, UniProt P34913)
T1 sequence (P34913 1-555): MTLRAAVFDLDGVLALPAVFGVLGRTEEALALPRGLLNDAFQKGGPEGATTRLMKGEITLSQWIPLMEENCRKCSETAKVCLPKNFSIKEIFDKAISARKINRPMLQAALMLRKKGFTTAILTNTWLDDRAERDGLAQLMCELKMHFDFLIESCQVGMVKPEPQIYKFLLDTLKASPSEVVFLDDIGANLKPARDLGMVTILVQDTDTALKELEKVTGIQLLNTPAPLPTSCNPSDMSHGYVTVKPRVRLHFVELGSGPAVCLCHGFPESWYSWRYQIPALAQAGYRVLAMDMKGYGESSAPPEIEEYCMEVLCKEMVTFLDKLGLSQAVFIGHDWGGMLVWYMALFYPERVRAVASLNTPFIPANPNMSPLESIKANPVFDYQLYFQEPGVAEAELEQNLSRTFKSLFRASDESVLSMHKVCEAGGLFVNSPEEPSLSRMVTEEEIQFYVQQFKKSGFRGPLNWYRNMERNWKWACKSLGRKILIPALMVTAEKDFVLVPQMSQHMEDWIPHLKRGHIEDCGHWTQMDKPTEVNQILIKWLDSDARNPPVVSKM
Test: Testing of ureas and lipid alkoxides as sEH inhibitors
Format: biochemical
From the text: (Both the 1- and the 2-adamantyl ureas have been tested and have about the same high activity as an inhibitor of sEH. Thus, isomers of adamantyl dodecyl urea are preferred inhibitors. It is further expected that N, N′-dodecyl-cyclohexyl urea (DCU), and other inhibitors of sEH, and particularly dodecanoic acid ester derivatives of urea, are suitable for use in the methods. Preferred inhibitors include without limitation:
U.S. Pat. No. 5,955,496 (the '496 patent) also sets forth a number of sEH inhibitors which can be used in the methods. One category of these inhibitors comprises inhibitors that mimic the substrate for the enzyme. The lipid alkoxides (e.g., the 9-methoxide of stearic acid) are an exemplar of this group of inhibitors.

In the case of CCCCCCCCCCCCNC(=O)NC12CC3CC(CC(C3)C1)C2 [ADU, N-Adamantyl-N′-dodecyl urea], the “activity as an inhibitor of sEH” value is reported as “particularly high activity”.

Reference: US12357598B2, “Treatment of neurodevelopmental disorders” (THE REGENTS OF THE UNIVERSITY OF CALIFORNIA, priority 2018, dated 2025)
